Tests used:
[1] = system: P. falciparum male gametocytes; test: P. falciparum Dual Gamete Formation Assay (PfDGFA), male readout (exflagellation); assay type: cell-based, Plasmodium falciparum NF54; conditions: for Average inhibition male (%): average of replicates; for % inhibition male (individual replicates) R1: replicate R1; for % inhibition male (individual replicates) R3: replicate R3; for % inhibition male (individual replicates) R4: replicate R4; for Activity: hit = >50% inhibition in male or female readout in at least 3 replicates, 0 = no class assigned
Method in brief: (§1)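 Two sex-specific readouts come from one well: male exflagellation centres recorded by brightfield video right after activation, and female gametes scored by Cy3-anti-Pfs25 fluorescence after 24 h at 28°C.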

[2] = system: P. falciparum female gametocytes; test: P. falciparum Dual Gamete Formation Assay (PfDGFA), female readout (Pfs25-positive female gametes); assay type: cell-based, Plasmodium falciparum NF54; conditions: for Average inhibition female (%): average of replicates; for % inhibition female (individual replicates) R1: replicate R1; for % inhibition female (individual replicates) R3: replicate R3; for % inhibition female (individual replicates) R4: replicate R4
Method in brief: as §1

[3] = 2µM, 24h preincubation with gametocytes prior to induction of gametogenesis
[4] = 2µM, 24h preincubation, hits selected on >50% inhibition in the male readout across replicates
[5] = PfDGFA at 2µM, 24h preincubation
[6] = 2µM, 24h preincubation, hits selected on >50% inhibition in the female readout across replicates
[7] = PfDGFA at 2µM, 24h preincubation with gametocytes
[8] = number of replicates with >50% inhibition in the male readout, 2µM
[9] = number of replicates with >50% inhibition in the female readout, 2µM
[10] = PfDGFA at 2µM, 24h preincubation with gametocytes prior to induction of gametogenesis
[11] = 2µM, 24h preincubation, number of replicates with >50% inhibition in the male readout
[12] = 2µM, 24h preincubation, number of replicates with >50% inhibition in the female readout

For `O=C(O)C(F)(F)F.c1cc(CNCCN2CCNCC2)cc(-c2cccc(-c3nc4ccccc4[nH]3)c2)c1` [TCMDC-132859], the “Average inhibition male (%)” value [1, 3] was 12.0%, the “% inhibition male (individual replicates) R1” value [1, 3] was 10.9% and the “% inhibition male (individual replicates) R3” value [1, 3] was -9.7%. For the same compound, the “% inhibition male (individual replicates) R4” value [1, 3] was 24.9%, the HitlevelM [1, 4] was 0 and the Activity [1, 5] was 0. For the same compound, the “Average inhibition female (%)” value [2, 3] was 17.2%, the “% inhibition female (individual replicates) R1” value [2, 3] was 18.5% and the “% inhibition female (individual replicates) R3” value [2, 3] was -13.9%. For the same compound, the “% inhibition female (individual replicates) R4” value [2, 3] was 47.2% and the HitlevelF [2, 6] was 0.

In the case of `Fc1ccc2[nH]c(-c3cccc(-c4cccc(CNCCN5CCNCC5)c4)c3)nc2c1.O=C(O)C(F)(F)F` [TCMDC-132860], the “Average inhibition male (%)” value [1, 7] was 74.7%, the “% inhibition male (individual replicates) R1” value [1, 7] was 80.2% and the “% inhibition male (individual replicates) R3” value [1, 7] was 48.0%. For the same compound, the “% inhibition male (individual replicates) R4” value [1, 7] was 89.6%, the HitlevelM [1, 8] was 3 and the “Average inhibition female (%)” value [2, 7] was -9.5%. For the same compound, the “% inhibition female (individual replicates) R1” value [2, 7] was 8.6%, the “% inhibition female (individual replicates) R3” value [2, 7] was -31.9% and the “% inhibition female (individual replicates) R4” value [2, 7] was -13.7%. It also gave a HitlevelF [2, 9] of 0.

`O=C(O)C(F)(F)F.c1cc(CNCCN2CCNCC2)cc(-c2ccc(-c3nc4ccccc4[nH]3)cc2)c1` [TCMDC-132861] was tested, and the “% inhibition male (individual replicates) R1” value [1, 10] was -18.7%, the “% inhibition male (individual replicates) R4” value [1, 10] was -15.3% and the “Average inhibition male (%)” value [1, 5] was -11.2%. The “% inhibition female (individual replicates) R1” value [2, 10] was -3.1%, the “% inhibition female (individual replicates) R3” value [2, 10] was -9.9% and the “% inhibition female (individual replicates) R4” value [2, 10] was 9.1%. The “Average inhibition female (%)” value [2, 5] was 1.2%.

In the case of `FC(F)(F)c1ccc2[nH]c(-c3ccc(-c4ccc(CNCCN5CCNCC5)cc4)s3)nc2c1.O=C(O)C(F)(F)F` [TCMDC-132862], the “Average inhibition male (%)” value [1, 3] was 44.8%, the “% inhibition male (individual replicates) R1” value [1, 3] was 46.6% and the “% inhibition male (individual replicates) R3” value [1, 3] was 56.6%. For the same compound, the “% inhibition male (individual replicates) R4” value [1, 3] was 89.1%, the HitlevelM [1, 11] was 2 and the “Average inhibition female (%)” value [2, 3] was 20.7%. For the same compound, the “% inhibition female (individual replicates) R1” value [2, 3] was 21.1%, the “% inhibition female (individual replicates) R3” value [2, 3] was 13.2% and the “% inhibition female (individual replicates) R4” value [2, 3] was 20.9%. The HitlevelF [2, 12] was 0.

With `Fc1ccc2[nH]c(-c3cccc(-c4ccc(CNCCN5CCNCC5)cc4)c3)nc2c1.O=C(O)C(F)(F)F` [TCMDC-132863] the “Average inhibition male (%)” value [1, 3] was 43.0%, the “% inhibition male (individual replicates) R1” value [1, 3] was 23.0% and the “% inhibition male (individual replicates) R3” value [1, 3] was 12.3%. For the same compound, the “% inhibition male (individual replicates) R4” value [1, 3] was 70.2%, the HitlevelM [1, 4] was 2 and the Activity [1, 5] was 0. The “Average inhibition female (%)” value [2, 3] was 14.3%, the “% inhibition female (individual replicates) R1” value [2, 3] was 16.6% and the “% inhibition female (individual replicates) R3” value [2, 3] was -21.5%. For the same compound, the “% inhibition female (individual replicates) R4” value [2, 3] was 42.6% and the HitlevelF [2, 6] was 0.

In the case of `Cc1cccc2nc(-c3cccc(-c4cccc(CNCCN5CCNCC5)c4)c3)[nH]c12.O=C(O)C(F)(F)F` [TCMDC-132873], the “Average inhibition male (%)” value [1, 3] was 29.1%, the “% inhibition male (individual replicates) R1” value [1, 3] was 24.4% and the “% inhibition male (individual replicates) R3” value [1, 3] was 9.9%. The “% inhibition male (individual replicates) R4” value [1, 3] was 46.2%, the HitlevelM [1, 4] was 0 and the Activity [1, 5] was 0. The “Average inhibition female (%)” value [2, 3] was 9.7%, the “% inhibition female (individual replicates) R1” value [2, 3] was 14.0% and the “% inhibition female (individual replicates) R3” value [2, 3] was 9.9%. The “% inhibition female (individual replicates) R4” value [2, 3] was 0.33% and the HitlevelF [2, 6] was 0.

With `CN(c1ncc(-c2cccc(CNCc3ccccc3O)c2)cn1)C1CCCCC1` [TCMDC-133137] the “% inhibition male (individual replicates) R1” value [1, 10] was -18.7%, the “% inhibition male (individual replicates) R4” value [1, 10] was -25.6% and the “Average inhibition male (%)” value [1, 5] was -17.4%. The “% inhibition female (individual replicates) R1” value [2, 10] was 2.5%, the “% inhibition female (individual replicates) R3” value [2, 10] was -2.1% and the “% inhibition female (individual replicates) R4” value [2, 10] was 17.4%. The “Average inhibition female (%)” value [2, 5] was 2.8%.

In the case of `Cl.c1cc(CNC2Cc3ccccc3C2)cc(-c2cnc(N3CCNCC3)nc2)c1` [TCMDC-133140], the “Average inhibition male (%)” value [1, 3] was 40.3%, the “% inhibition male (individual replicates) R1” value [1, 3] was 37.9% and the “% inhibition male (individual replicates) R3” value [1, 3] was 14.1%. The “% inhibition male (individual replicates) R4” value [1, 3] was 54.9%, the HitlevelM [1, 11] was 2 and the “Average inhibition female (%)” value [2, 3] was 27.8%. The “% inhibition female (individual replicates) R1” value [2, 3] was 25.6%, the “% inhibition female (individual replicates) R3” value [2, 3] was 8.0% and the “% inhibition female (individual replicates) R4” value [2, 3] was 43.1%. It also gave a HitlevelF [2, 12] of 0.

With `CN1CCCC1CCNCc1cccc(-c2cnc(N(C)C3CCCCC3)nc2)c1` (stereo not shown) [TCMDC-133141] the “Average inhibition male (%)” value [1, 7] was 74.0%, the “% inhibition male (individual replicates) R1” value [1, 7] was 71.5% and the “% inhibition male (individual replicates) R3” value [1, 7] was 68.9%. The “% inhibition male (individual replicates) R4” value [1, 7] was 81.6%, the HitlevelM [1, 8] was 4 and the “Average inhibition female (%)” value [2, 7] was 34.0%. For the same compound, the “% inhibition female (individual replicates) R1” value [2, 7] was 30.5%, the “% inhibition female (individual replicates) R3” value [2, 7] was 11.1% and the “% inhibition female (individual replicates) R4” value [2, 7] was 42.8%. For the same compound, the HitlevelF [2, 9] was 1.

In the case of `CCCN(CC1CC1)c1ncc(-c2cccc(CNCCC3CCCN3C)c2)cn1` (stereo not shown) [TCMDC-133142], the “Average inhibition male (%)” value [1, 3] was 41.7%, the “% inhibition male (individual replicates) R1” value [1, 3] was 43.1% and the “% inhibition male (individual replicates) R3” value [1, 3] was 28.4%. The “% inhibition male (individual replicates) R4” value [1, 3] was 53.6%, the HitlevelM [1, 4] was 1 and the Activity [1, 5] was 0. For the same compound, the “Average inhibition female (%)” value [2, 3] was 16.5%, the “% inhibition female (individual replicates) R1” value [2, 3] was 26.9% and the “% inhibition female (individual replicates) R3” value [2, 3] was 12.7%. For the same compound, the “% inhibition female (individual replicates) R4” value [2, 3] was -0.1% and the HitlevelF [2, 6] was 0.

In the case of `CN(CCc1ccccc1)c1ncc(-c2cccc(CNCCC3CCCN3C)c2)cn1` (stereo not shown) [TCMDC-133143], the “Average inhibition male (%)” value [1, 3] was 57.0%, the “% inhibition male (individual replicates) R1” value [1, 3] was 66.7% and the “% inhibition male (individual replicates) R3” value [1, 3] was 31.4%. For the same compound, the “% inhibition male (individual replicates) R4” value [1, 3] was 52.9%, the HitlevelM [1, 11] was 3 and the “Average inhibition female (%)” value [2, 3] was 35.0%. The “% inhibition female (individual replicates) R1” value [2, 3] was 22.5%, the “% inhibition female (individual replicates) R3” value [2, 3] was 13.4% and the “% inhibition female (individual replicates) R4” value [2, 3] was 55.4%. The HitlevelF [2, 12] was 1.

For `CN1CCCC1CCNCc1cccc(-c2cnc(N3CCCC(C)(C)C3)nc2)c1` (stereo not shown) [TCMDC-133144], the “Average inhibition male (%)” value [1, 3] was 57.1%, the “% inhibition male (individual replicates) R1” value [1, 3] was 64.8% and the “% inhibition male (individual replicates) R3” value [1, 3] was 37.3%. For the same compound, the “% inhibition male (individual replicates) R4” value [1, 3] was 70.2%, the HitlevelM [1, 11] was 3 and the “Average inhibition female (%)” value [2, 3] was 21.7%. For the same compound, the “% inhibition female (individual replicates) R1” value [2, 3] was 23.0%, the “% inhibition female (individual replicates) R3” value [2, 3] was 21.4% and the “% inhibition female (individual replicates) R4” value [2, 3] was 13.1%. It also gave a HitlevelF [2, 12] of 0.

With `O=C(Nc1ccsc1)Nc1cccc(-c2ccc(-c3nc4cc(C(F)(F)F)ccc4[nH]3)cc2)c1` [TCMDC-133210] the “% inhibition male (individual replicates) R1” value [1, 10] was -6.9%, the “% inhibition male (individual replicates) R3” value [1, 10] was -21.6% and the “% inhibition male (individual replicates) R4” value [1, 10] was 0.9%. The “Average inhibition male (%)” value [1, 5] was -14.6%, the “% inhibition female (individual replicates) R1” value [2, 10] was 5.3% and the “% inhibition female (individual replicates) R3” value [2, 10] was -25.6%. For the same compound, the “% inhibition female (individual replicates) R4” value [2, 10] was -2.5% and the “Average inhibition female (%)” value [2, 5] was -7.9%.

For `CCCCCN1CCCC1CNS(=O)(=O)c1cccc(C(=O)Nc2cccc(C#N)c2)c1.O=C(O)C(F)(F)F` (stereo not shown) [TCMDC-133690], the “% inhibition male (individual replicates) R1” value [1, 10] was -0.3%, the “% inhibition male (individual replicates) R4” value [1, 10] was 15.0% and the “Average inhibition male (%)” value [1, 5] was 7.9%. For the same compound, the “% inhibition female (individual replicates) R1” value [2, 10] was 2.9%, the “% inhibition female (individual replicates) R3” value [2, 10] was -5.0% and the “% inhibition female (individual replicates) R4” value [2, 10] was 6.8%. The “Average inhibition female (%)” value [2, 5] was -0.08%.
